Test results taken from ChEMBL document CHEMBL1201862, “PubChem BioAssay data set” (2004).
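Cultured in 96-well plates, cells were exposed to test compound for 48 hours across five concentrations. GI50 marks 50% less growth.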 The source made the active and inactive calls. Cut-off read from the data, not from the text of the source: active = GI50 up to about 1.1 µM and inactive = higher.

Legend:
Experiment in all cases: inhibition of tumour cell growth, NCI panel, 48 h
RPMI-8226 = test system: RPMI-8226
MDA-MB-231 = test system: MDA-MB-231
HCT-15 = test system: HCT-15
COLO 205 = test system: COLO 205
HOP-92 = test system: HOP-92
SK-MEL-2 = test system: SK-MEL-2
OVCAR-5 = test system: OVCAR-5
OVCAR-3 = test system: OVCAR-3
NCI-H522 = test system: NCI-H522
NCI-H226 = test system: NCI-H226
Malme-3M = test system: Malme-3M
HL-60 = test system: HL-60
K562 = test system: K562
PC-3 = test system: PC-3
HCC 2998 = test system: HCC 2998
SF-268 = test system: SF-268
Hs-578T = test system: Hs-578T
SNB-75 = test system: SNB-75
HCT-116 = test system: HCT-116

Row | SMILES | GI50 (RPMI-8226) | GI50 (MDA-MB-231) | GI50 (HCT-15) | GI50 (COLO 205) | GI50 (HOP-92) | GI50 (SK-MEL-2) | GI50 (OVCAR-5) | GI50 (OVCAR-3) | GI50 (NCI-H522) | GI50 (NCI-H226) | GI50 (Malme-3M) | GI50 (HL-60) | GI50 (K562) | GI50 (PC-3) | GI50 (HCC 2998) | GI50 (SF-268) | GI50 (Hs-578T) | GI50 (SNB-75) | GI50 (HCT-116)
1 | CC(=O)OC12c3ccccc3-c3ccccc3C1C(C(=O)O)C2C(=O)O (centres undefined) | > 10 µM (inactive) | > 10 µM (inactive) | > 10 µM | > 10 µM (inactive) | > 10 µM (inactive) | > 10 µM (inactive) | > 10 µM (inactive) | > 10 µM (inactive) | > 10 µM (inactive) | > 10 µM (inactive) | 1.2 µM (inactive) | > 10 µM (inactive) | > 10 µM (inactive) | > 10 µM (inactive) | > 10 µM (inactive) | > 10 µM (inactive) | > 10 µM (inactive) |  | 
2 | CC(NC(=O)OC(C)(C)C)C(=O)NC1CCCC1 (centres undefined) | > 100 µM (inactive) |  |  | > 100 µM (inactive) | > 100 µM (inactive) |  | > 100 µM (inactive) | > 100 µM (inactive) | > 100 µM (inactive) | > 100 µM (inactive) | > 100 µM (inactive) | > 100 µM (inactive) | > 100 µM (inactive) | > 100 µM (inactive) | > 100 µM (inactive) | > 100 µM (inactive) | > 100 µM (inactive) | > 100 µM (inactive) | > 100 µM (inactive)
3 | CCOC(=O)CC(N1CC1)N1CC1 | > 10 µM (inactive) | > 10 µM (inactive) | > 10 µM | > 10 µM (inactive) |  | > 10 µM (inactive) | > 10 µM (inactive) | > 10 µM (inactive) | > 10 µM (inactive) | > 10 µM (inactive) | > 10 µM (inactive) | > 10 µM (inactive) | > 10 µM (inactive) | > 10 µM (inactive) | > 10 µM (inactive) | > 10 µM (inactive) | > 10 µM (inactive) | > 10 µM (inactive) | > 10 µM (inactive)
4 | O=C(O)c1ccc(C2COc3ccc(Cl)cc3C2)cc1 (centres undefined) | > 100 µM (inactive) |  | > 100 µM | > 100 µM (inactive) | > 100 µM (inactive) | > 100 µM (inactive) | > 100 µM (inactive) | > 100 µM (inactive) | > 100 µM (inactive) | > 100 µM (inactive) | > 100 µM (inactive) | > 100 µM (inactive) | > 100 µM (inactive) |  | > 100 µM (inactive) | > 100 µM (inactive) |  | 31.6 µM (inactive) | > 100 µM (inactive)
5 | Cc1ccccc1NC(=O)C1C(=O)N(c2ccccc2C)C(=O)/C1=N\N (centres undefined) | > 100 µM (inactive) |  | > 100 µM | > 100 µM (inactive) | > 100 µM (inactive) | > 100 µM (inactive) | > 100 µM (inactive) | > 100 µM (inactive) | > 100 µM (inactive) | > 100 µM (inactive) | > 100 µM (inactive) | > 100 µM (inactive) | > 100 µM (inactive) |  | > 100 µM (inactive) | > 100 µM (inactive) |  | > 100 µM (inactive) | > 100 µM (inactive)
6 | Clc1ccccc1CN1COc2c(ccc3cccnc23)C1 | 2.73 µM (inactive) |  | 2.06 µM | 8.38 µM (inactive) | 2.36 µM (inactive) | 1.72 µM (inactive) | 7.41 µM (inactive) | 3.32 µM (inactive) | 0.404 µM (active) | 3.87 µM (inactive) | 4.78 µM (inactive) | 1.83 µM (inactive) | 2.12 µM (inactive) |  | 6.95 µM (inactive) | 3.65 µM (inactive) |  | 7.91 µM (inactive) | 3.07 µM (inactive)
